#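 Compound exposure: 48 hours, 5 concentrations, 96-well plates. GI50: concentration for 50% inhibition of growth.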 Active and inactive are the calls of the source. Cut-off read from the data, not from the text of the source: active = GI50 up to about 1.1 µM and inactive = higher.
# Assays:
# Assay in all cases: NCI tumour cell line growth inhibition, 48 h
# SK-MEL-28 = tested on: SK-MEL-28
# NCI-H460 = tested on: NCI-H460
# UACC-257 = tested on: UACC-257
# M14 = tested on: M14
# HCT-116 = tested on: HCT-116
# HL-60 = tested on: HL-60
# HCT-15 = tested on: HCT-15
# SNB-75 = tested on: SNB-75
# KM12 = tested on: KM12
# HCC 2998 = tested on: HCC 2998
# OVCAR-8 = tested on: OVCAR-8
# CAKI-1 = tested on: CAKI-1
# SK-OV-3 = tested on: SK-OV-3
# SN12C = tested on: SN12C
# 786-0 = tested on: 786-0
# OVCAR-5 = tested on: OVCAR-5
# NCI-H522 = tested on: NCI-H522
# UACC-62 = tested on: UACC-62
Compound,GI50 (SK-MEL-28),GI50 (NCI-H460),GI50 (UACC-257),GI50 (M14),GI50 (HCT-116),GI50 (HL-60),GI50 (HCT-15) [µM],GI50 (SNB-75),GI50 (KM12),GI50 (HCC 2998),GI50 (OVCAR-8),GI50 (CAKI-1),GI50 (SK-OV-3),GI50 (SN12C),GI50 (786-0),GI50 (OVCAR-5),GI50 (NCI-H522),GI50 (UACC-62)
CC(=O)Nc1ccc(-c2nnc(SCC(=O)Nc3ccc(Cl)cc3Cl)o2)cc1,> 100 µM (inactive),32.9 µM (inactive),44.2 µM (inactive),29.3 µM (inactive),40.5 µM (inactive),27.8 µM (inactive),38.5,31.3 µM (inactive),65.9 µM (inactive),> 100 µM (inactive),38.2 µM (inactive),> 100 µM (inactive),64.3 µM (inactive),20.2 µM (inactive),16.1 µM (inactive),> 100 µM (inactive),20.7 µM (inactive),–
COC(OC)c1cc2c(cc1C(=O)[C@@]13CCC[C@@H]1NC(=O)O3)OCO2,> 100 µM (inactive),> 100 µM (inactive),> 100 µM (inactive),> 100 µM (inactive),> 100 µM (inactive),> 100 µM (inactive),–,49 µM (inactive),> 100 µM (inactive),–,> 100 µM (inactive),> 100 µM (inactive),> 100 µM (inactive),> 100 µM (inactive),> 100 µM (inactive),> 100 µM (inactive),> 100 µM (inactive),34.1 µM (inactive)
Cn1nc2ccccc2cc1=O,> 100 µM (inactive),> 100 µM (inactive),> 100 µM (inactive),> 100 µM (inactive),> 100 µM (inactive),–,> 100,59.2 µM (inactive),> 100 µM (inactive),> 100 µM (inactive),> 100 µM (inactive),> 100 µM (inactive),> 100 µM (inactive),> 100 µM (inactive),> 100 µM (inactive),> 100 µM (inactive),–,> 100 µM (inactive)
O=C(O)CC[C@H](NC(=O)c1ccc(-n2nc3ccc(=O)cc-3[nH]c2=O)cc1)C(=O)O,> 100 µM (inactive),> 100 µM (inactive),> 100 µM (inactive),> 100 µM (inactive),> 100 µM (inactive),> 100 µM (inactive),> 100,–,> 100 µM (inactive),> 100 µM (inactive),> 100 µM (inactive),–,–,> 100 µM (inactive),> 100 µM (inactive),> 100 µM (inactive),> 100 µM (inactive),> 100 µM (inactive)
COC(=O)N/N=C(\C)CC(=O)Nc1ccc(Cl)cc1,> 100 µM (inactive),> 100 µM (inactive),> 100 µM (inactive),> 100 µM (inactive),> 100 µM (inactive),> 100 µM (inactive),–,98.6 µM (inactive),> 100 µM (inactive),> 100 µM (inactive),> 100 µM (inactive),–,> 100 µM (inactive),–,> 100 µM (inactive),> 100 µM (inactive),58.5 µM (inactive),> 100 µM (inactive)
Cc1nc(C(N)=S)sc1C(=O)/C=C/c1cccc(O)c1,> 100 µM (inactive),> 100 µM (inactive),> 100 µM (inactive),–,–,36.1 µM (inactive),> 100,59.6 µM (inactive),32.4 µM (inactive),> 100 µM (inactive),> 100 µM (inactive),> 100 µM (inactive),> 100 µM (inactive),> 100 µM (inactive),> 100 µM (inactive),> 100 µM (inactive),90.4 µM (inactive),> 100 µM (inactive)
CC(C)=CC(=O)c1c(C(=O)O)nc2ccccc2[n+]1[O-],> 100 µM (inactive),> 100 µM (inactive),> 100 µM (inactive),> 100 µM (inactive),> 100 µM (inactive),> 100 µM (inactive),> 100,> 100 µM (inactive),> 100 µM (inactive),> 100 µM (inactive),–,> 100 µM (inactive),> 100 µM (inactive),> 100 µM (inactive),> 100 µM (inactive),> 100 µM (inactive),–,> 100 µM (inactive)
CC1OC(n2cc(F)c(=O)[nH]c2=O)CCC1=O (configuration not stated),–,32.2 µM (inactive),> 100 µM (inactive),> 100 µM (inactive),44.9 µM (inactive),74.6 µM (inactive),95.3,> 100 µM (inactive),92.9 µM (inactive),5.98 µM (inactive),> 100 µM (inactive),> 100 µM (inactive),> 100 µM (inactive),> 100 µM (inactive),> 100 µM (inactive),> 100 µM (inactive),> 100 µM (inactive),> 100 µM (inactive)
COc1cccc(OC)c1/C=N\N1C(=O)c2ccccc2C1=O,77.6 µM (inactive),43.2 µM (inactive),> 100 µM (inactive),19.7 µM (inactive),33.5 µM (inactive),33.9 µM (inactive),32.1,38.5 µM (inactive),36.6 µM (inactive),29.5 µM (inactive),29.6 µM (inactive),38.5 µM (inactive),–,57.1 µM (inactive),31.3 µM (inactive),> 100 µM (inactive),–,34.6 µM (inactive)
CCn1c2ccccc2c(=O)c2c(OC)ccc(OC)c21,–,47.6 µM (inactive),41.4 µM (inactive),79.8 µM (inactive),51.1 µM (inactive),29.6 µM (inactive),45.9,–,79.6 µM (inactive),–,56.8 µM (inactive),22.9 µM (inactive),64.9 µM (inactive),42.5 µM (inactive),51.3 µM (inactive),> 61.7 µM (inactive),20.6 µM (inactive),43.6 µM (inactive)
COC(=O)/C(=C/CC(N=C(c1ccccc1)c1ccccc1)C(=O)OC)N=C(c1ccccc1)c1ccccc1 (configuration not stated),> 100 µM (inactive),> 100 µM (inactive),> 100 µM (inactive),> 100 µM (inactive),> 100 µM (inactive),> 100 µM (inactive),> 100,12.4 µM (inactive),> 100 µM (inactive),> 100 µM (inactive),> 100 µM (inactive),> 100 µM (inactive),39 µM (inactive),> 100 µM (inactive),> 100 µM (inactive),–,38.5 µM (inactive),> 100 µM (inactive)
CC#CC1C(OC(=O)c2ccccc2)CCCC1(CI)N=[N+]=[N-] (configuration not stated),–,60.7 µM (inactive),38.2 µM (inactive),59.8 µM (inactive),32.8 µM (inactive),15.1 µM (inactive),45.2,> 100 µM (inactive),89.7 µM (inactive),90.2 µM (inactive),59.7 µM (inactive),> 100 µM (inactive),> 100 µM (inactive),> 100 µM (inactive),> 100 µM (inactive),> 100 µM (inactive),22.4 µM (inactive),> 100 µM (inactive)
N#CC1=C(c2ccccc2)NN(Cc2ccccc2)C(c2ccc(Cl)cc2)CC1=O (configuration not stated),39.8 µM (inactive),18 µM (inactive),37.8 µM (inactive),–,18.7 µM (inactive),28.2 µM (inactive),22.9,18.3 µM (inactive),25.8 µM (inactive),–,–,30.1 µM (inactive),> 10 µM (inactive),–,24.3 µM (inactive),34 µM (inactive),12.7 µM (inactive),–
OC1(C23CC4CC(CC(C4)C2)C3)CSCC1(O)C12CC3CC(CC(C3)C1)C2 (configuration not stated),> 100 µM (inactive),–,> 100 µM (inactive),> 100 µM (inactive),> 100 µM (inactive),> 10 µM (inactive),–,> 100 µM (inactive),> 100 µM (inactive),> 100 µM (inactive),> 100 µM (inactive),> 100 µM (inactive),> 100 µM (inactive),> 100 µM (inactive),> 100 µM (inactive),–,> 100 µM (inactive),70.6 µM (inactive)
CC1(C)COC2(OC1)C1=NS(=O)(=O)CC13CCC2C3(C)C (configuration not stated),> 100 µM (inactive),> 100 µM (inactive),> 100 µM (inactive),> 100 µM (inactive),> 100 µM (inactive),> 100 µM (inactive),> 100,> 100 µM (inactive),> 100 µM (inactive),–,> 100 µM (inactive),> 100 µM (inactive),> 100 µM (inactive),> 100 µM (inactive),> 100 µM (inactive),> 100 µM (inactive),> 100 µM (inactive),> 100 µM (inactive)
CN(C)C(=Nc1nc(N(C)C)s[s+]1)N(C)C,> 100 µM (inactive),> 100 µM (inactive),> 100 µM (inactive),> 100 µM (inactive),–,> 100 µM (inactive),> 100,> 100 µM (inactive),> 100 µM (inactive),> 100 µM (inactive),> 100 µM (inactive),> 100 µM (inactive),> 100 µM (inactive),> 100 µM (inactive),> 100 µM (inactive),> 100 µM (inactive),> 100 µM (inactive),> 100 µM (inactive)
CCCCCCCCCCCCNC1(C)CNCCCNCCNCCCNC1,1.87 µM (inactive),1.33 µM (inactive),1.76 µM (inactive),1.79 µM (inactive),1.32 µM (inactive),0.726 µM (active),–,1.73 µM (inactive),1.53 µM (inactive),1.79 µM (inactive),1.55 µM (inactive),1.87 µM (inactive),1.82 µM (inactive),1.67 µM (inactive),1.75 µM (inactive),2.23 µM (inactive),1.82 µM (inactive),1.82 µM (inactive)
